Test results taken from PMC6199744, “Development of Chemical Proteomics for the Folateome and Analysis of the Kinetoplastid Folateome” (ACS Infectious Diseases, 2018).

Test system: L. major lysate proteins
Test: Multitargeted bead mixture chemoproteomics, single concentration competition, proteome-wide
Format: binding
Settings: for fold change / fold change relative to vehicle control: vehicle control = 1; for fold change relative to vehicle control: competition with free ligand

Structure (SMILES): CCCCCCOc1ccc(Cc2cnc(N)nc2N)cc1 [compound 1]
- fold change (protein LMJF.22.1460 I/6 AUTOANTIGEN-LIKE PROTEIN): 0.95
- fold change vs vehicle control (protein LMJF.22.1540 ALANYL-TRNA SYNTHETASE, PUTATIVE): 0.85
- fold change vs vehicle control (protein LMJF.23.0370 […] OXIDASE SUBUNIT 10, PUTATIVE): 1.08
- fold change (protein LMJF.23.0830 NA/H ANTIPORTER-LIKE PROTEIN): 0.89
- fold change (protein LMJF.23.1020 HYPOTHETICAL PROTEIN, UNKNOWN FUNCTION): 0.87
- fold change (protein LMJF.23.1220 T-COMPLEX PROTEIN 1, GAMMA SUBUNIT, PUTATIVE): 1.03
- fold change vs vehicle control (protein LMJF.24.0140 ANKYRIN/TPR REPEAT PROTEIN): 1.09
- fold change (protein LMJF.24.0280 DYNEIN INTERMEDIATE-CHAIN-LIKE PROTEIN): 0.97
- fold change (protein LMJF.24.0770 MALIC ENZYME, PUTATIVE): 0.95
- fold change relative to vehicle control (protein LMJF.24.1510 IGE-DEPENDENT HISTAMINE-RELEASING FACTOR, PUTATIVE): 1.09
- fold change vs vehicle control (protein LMJF.24.1630, SUCCINATE DEHYDROGENASE FLAVOPROTEIN, PUTATIVE): 0.9
- fold change vs vehicle control (protein LMJF.24.1840 LYSOPHOSPHOLIPASE, PUTATIVE): 1.07
- fold change relative to vehicle control (protein LMJF.24.2060 TRANSKETOLASE): 0.84
- fold change (protein LMJF.24.2250 FATTY-ACID DESATURASE, PUTATIVE): 1.09
- fold change vs vehicle control (protein LMJF.25.0120 ELECTRON TRANSFER FLAVOPROTEIN, PUTATIVE): 1.75
- fold change vs vehicle control (protein LMJF.25.0260 DYNEIN LIGHT CHAIN 1, CYTOPLASMIC, PUTATIVE): 0.91
- fold change relative to vehicle control (protein LMJF.25.0910 C[…]): 1.46
- fold change vs vehicle control (protein LMJF.25.1180, ATPASE BETA SUBUNIT, PUTATIVE): 1.06
- fold change (protein LMJF.25.1610 HYPOTHETICAL PROTEIN, CONSERVED): 0.79
- fold change (protein LMJF.25.1620 HY[…], CONSERVED): 1.11
- fold change vs vehicle control (protein LMJF.26.1240 HEAT SHOCK PROTEIN 70-RELATED PROTEIN): 1.01
- fold change vs vehicle control (protein LMJF.26.1710 […] OXIDASE SUBUNIT V, PUTATIVE): 1.04
- fold change vs vehicle control (protein LMJF.26.1960 HY[…], CONSERVED): 1.01
- fold change vs vehicle control (protein LMJF.26.2000 HY[…], CONSERVED): 1.05
- fold change vs vehicle control (protein LMJF.27.0420 RIBOKINASE, PUTATIVE): 1.05
- fold change vs vehicle control (protein LMJF.27.1060 CYSTEINE DESULFURASE, PUTATIVE): 0.97
- fold change (protein LMJF.27.1310 ARGINYL-TRNA SYNTHETASE, PUTATIVE): 1.05
- fold change vs vehicle control (protein LMJF.27.2400 HEAT SHOCK PROTEIN DNAJ, PUTATIVE): 0.91
- fold change vs vehicle control (protein LMJF.28.0110 […] 3 SUBUNIT, PUTATIVE): 1.04
- fold change vs vehicle control (protein LMJF.28.0930 HYPOTHETICAL PROTEIN, CONSERVED): 1
- fold change vs vehicle control (protein LMJF.28.0950 HY[…], CONSERVED): 1.07
- fold change vs vehicle control (protein LMJF.28.1950 X-PRO, DIPEPTIDYL-PEPTIDASE,SERINE PEPTIDASE, CLAN SC, FAMILY S15, PUTATIVE): 0.94
- fold change relative to vehicle control (protein LMJF.28.2770 HEAT-SHOCK PROTEIN HSP70, PUTATIVE): 1.15
- fold change (protein LMJF.29.0060 TRYPTOPHANYL-TRNA SYNTHETASE, PUTATIVE): 1
- fold change (protein LMJF.29.0820 CYSTEINE PEPTIDASE C (CPC)): 0.78
- fold change relative to vehicle control (protein LMJF.29.0850 HIGH MOBILITY GROUP PROTEIN HOMOLOG TDP-1, PUTATIVE): 1.77
- fold change vs vehicle control (protein LMJF.29.1160 TRYPAREDOXIN): 1
- fold change (protein LMJF.29.1760 PARAFLAGELLAR ROD PROTEIN 1D, PUTATIVE): 0.77
- fold change vs vehicle control (protein LMJF.29.1780 DIPHTHAMIDE SYNTHESIS PROTEIN, PUTATIVE): 0.62
- fold change vs vehicle control (protein LMJF.29.2240 AMINOPEPTIDASE, PUTATIVE): 0.98
- fold change (protein LMJF.29.2310 ENOYL-COA HYDRATASE/ISOMERASE-LIKE PROTEIN): 0.95
- fold change (protein LMJF.29.2860 40S RIBOSOMAL PROTEIN S19-LIKE PROTEIN): 1.25
- fold change vs vehicle control (protein LMJF.30.0850 SURFACE PROTEIN AMASTIN, PUTATIVE): 0.97
- fold change (protein LMJF.30.1250 PYRIDOXAL KINASE, PUTATIVE): 1.06
- fold change (protein LMJF.30.2580 RETICULON DOMAIN PROTEIN, 22 KDA POTENTIALLY AGGRAVATING PROTEIN (PAPLE22)): 1.3
- fold change vs vehicle control (protein LMJF.30.3190 3-HYDROXY-3-METHYLGLUTARYL-COA REDUCTASE): 0.77
- fold change vs vehicle control (protein LMJF.30.3520 S-ADENOSYL[…]): 1.09
- fold change vs vehicle control (protein LMJF.31.0440 CYTOSKELETON-[…] CAP5 5, PUTATIVE): 0.82
- fold change (protein LMJF.31.1130 N-ACYL-L-AMINO ACID AMIDOHYDROLASE, PUTATIVE): 0.74
- fold change vs vehicle control (protein LMJF.31.1640 THIOLASE PROTEIN-LIKE PROTEIN): 1.14
- fold change (protein LMJF.31.1800 AMINO ACID PERMEASE): 1.07
- fold change (protein LMJF.31.2250 3,2-TRANS-ENOYL-COA ISOMERASE, MIT[…], PUTATIVE): 0.85
- fold change vs vehicle control (protein LMJF.31.2790 ADP-RI[…], PUTATIVE): 1.12
